Values after ≈ are worked out from the molar mass of the structure shown. Like-named read-outs stand apart in the source and are kept apart here.

Series [1] deals with influenza virus (A/Puerto Rico/8/34 (H1N1), PR/8). Briefly: organism not typed. Type of series: cell-based. The settings on record: for IC50: read-out: IC50 against H1N1 (CPE inhibition); for selectivity index (SI): H1N1 IC50 and MDCK CC50.
The next series is described as follows: in vitro. The settings on record: dog.
Setting [2] is: MDCK cells infected with A/Puerto Rico/8/34 (H1N1), 48 h post-infection, crystal violet staining.

Turning to `Cc1cc2nc3[nH]c(=O)[nH]c(=O)c3nc2cc1C` [Compound 10, lumichrome], in series [1] (MDCK, 48 h), the IC50 (usually the point on the concentration scale where inhibition reaches its midpoint) stood at 39.7 µg/mL (≈ 164 µM). As to `COCc1ccc(C=O)[nH]1` [Compound 13, 5-(methoxymethyl)-1H-pyrrole-2-carbaldehyde], the IC50 in series [1] (setting [2]) is over 50 µg/mL. Consider `O=Cc1ccc2n1[C@@H](Cc1ccccc1)C(=O)OC2` [Compound 6, (S)-4-benzyl-3-oxo-3,4-dihydro-1H-pyrrolo[2,1-c][1,4]oxazine-6-carbaldehyde], for which the half-maximal inhibitory concentration (IC50) in series [1] (setting [2]) is over 50 µg/mL. As for `CC(C)C[C@H]1C(=O)OCc2ccc(C=O)n21` [Compound 3, (S)-4-isobutyl-3-oxo-3,4-dihydro-1H-pyrrolo[2,1-c][1,4]oxazine-6-carbaldehyde], the IC50 in series [1] (setting [2]) is over 50 µg/mL. On the same count and under the same terms, the figure for `O=C(O)c1cc2c([nH]c3ccccc32)c(-c2ccc(CO)o2)n1` [Compound 7, flazin] is over 50 µg/mL. `OCc1ccc(-c2nccc3c2[nH]c2ccccc23)o1` [Compound 8, perlolyrine]: the “selectivity index (SI)” value in series [1] is 3.0. The IC50 in series [1] (setting [2]) came out at 38.3 µg/mL (≈ 145 µM). The same compound came in with a CC50 at 36 h in the series “in vitro” of 116 ± 12.1 µg/mL (≈ 440 µM).

On to `O=C(CO)c1c[nH]c2ccccc12` [Compound 12, 2-hydroxy-1-(1H-indol-3-yl)ethanone], for which the IC50 in series [1] (setting [2]) was over 50 µg/mL. Turning to `OC[C@H](O)[C@@H](O)Cc1cnc(-c2ccco2)cn1` [Compound 2, 2-(furan-2-yl)-5-(2S,3S,4-trihydroxybutyl)pyrazine], the IC50 in series [1] (setting [2]) is over 50 µg/mL. Still for that read-out and setting: for `CC(C)[C@H]1C(=O)OCc2ccc(C=O)n21` [Compound 4, (S)-4-isopropyl-3-oxo-3,4-dihydro-1H-pyrrolo[2,1-c][1,4]oxazine-6-carbaldehyde] the value was over 50 µg/mL. Turning to “(4S)-4-(2-methylbutyl)-3-oxo-3,4-dihydro-1H-pyrrolo[2,1-c][1,4]oxazine-6-carbaldehyde [Compound 5]”, in series [1] (setting [2]), the “IC50 against H1N1 (CPE inhibition)” value was over 50 µg/mL. In the case of `OC[C@H](O)[C@@H](O)Cc1cncc(-c2ccco2)n1` [Compound 1, 2-(furan-2-yl)-6-(2S,3S,4-trihydroxybutyl)pyrazine], in series [1] (setting [2]), the IC50 is over 50 µg/mL. Take `Oc1nccc2c1[nH]c1ccccc12` [Compound 9, 1-hydroxy-β-carboline]: the “selectivity index (SI)” value in series [1] was 16.1. The IC50 in series [1] (setting [2]) was found to be 25 µg/mL (≈ 136 µM). Moreover, in the series “in vitro”, the CC50 at 36 h came out at 403 ± 31.4 µg/mL (≈ 2190 µM). Take `NC(=O)c1ncn([C@@H]2O[C@H](CO)[C@@H](O)[C@H]2O)n1` [Ribavirin, ribavirin, reference compound]: the “selectivity index (SI)” value in series [1] is 32.2. Further, the IC50 in series [1] (setting [2]) was found to be 23.1 µg/mL (≈ 94.6 µM). In addition, the CC50 at 36 h in the series “in vitro” was 744 ± 18.5 µg/mL (≈ 3050 µM). Take `O=Cc1c[nH]c2ccccc12` [Compound 11, 1H-indole-3-carboxaldehyde]: in series [1], the “selectivity index (SI)” value was determined as 11.4. Further, the concentration for half-maximal inhibition (IC50) in series [1] (setting [2]) was determined as 45.9 µg/mL (≈ 316 µM). The compound also gave a CC50 at 36 h in “in vitro” of 522 ± 24.5 µg/mL (≈ 3600 µM).

These data come from PMC3917282, “Alkaloids from the Mangrove-Derived Actinomycete Jishengella endophytica 161111” (Marine Drugs, 2014).
